Reference: US20260284240A1, “RADIOLABELED COMPOUND FOR USE IN A METHOD OF TREATING CARBONIC ANHYDRASE IX POSITIVE DISEASES” (DEBIOPHARM INTERNATIONAL S.A., priority 2023, published 2026)
Where two headings read alike, the source gives them in different places. Starred links: 1 amine or outer side, 2 acyl side, 3 side chain; linkers in the order of their positions; H or OH if unused. Positions of bridges follow the written chain, without caps; N, C: chain ends. Non-standard residues stand in square brackets, D forms with d. Residues, ends and D or L forms follow the SMILES beside them. *: point of attachment. Phe(3-NHCO(CH2)3SO2NH2) = N[C@@H](Cc1cccc(NC(=O)CCCS(N)(=O)=O)c1)C(=O)O; DOTA = O=C(O)CN1CCN(CC(=O)O)CCN(CC(=O)*)CCN(CC(=O)O)CC1; mXylylene = c1cc(C[*:1])cc(C[*:2])c1; X1 = O=C(CN1CCN([*:1])CC1)[*:2]

What was measured:
[1] = Pharmacokinetics after single i.v. dose in healthy male CD-1 mice; assay type: in vivo; conditions: urine, iv, mouse, read-out: Injected dose retrieved from urine unchanged over 8 hours
Description: The pharmacokinetics of DPI-4452 after a single intravenous (i.v.) dose were investigated in healthy mice. […] Plasma and urine samples collected after dosing were analyzed using a LC-HRMS (liquid chromatography coupled with high-resolution mass spectrometry) assay method. Concentration values were used for pharmacokinetic calculations.
Male CD-1 mice (3 animals per time point and per dose level; overall, 28.2-37.6 g body weight) were administered intravenously in the tail vein in a 2 mL/kg dosing volume. Blood samples were collected in K2EDTA tubes at 5 min, 15 min, 30 min, 1 h, 2 h, 4 h, 8 h, and urine was collected over 8 hours post dose. […]
Plasma and urine samples were analyzed by LC-HRMS after solid phase extraction, using a stable isotope-labeled internal standard (^13C6, ^15N-DPI-4452). […] The lower limit of quantification was 1.00 ng/mL in plasma and urine.
The non-compartmental (NCA) pharmacokinetic analysis of plasma concentration data was conducted using Phoenix 64 WinNonlin (Build 8.3.3.33) software. […] The terminal phase half-life (T1/2) was calculated by least-squares regression analysis of the terminal linear part of the log concentration-time curve. The area under the plasma concentration-time curve (AUC) was determined with the linear trapezoidal rule for increasing values and log trapezoidal rule for decreasing values up to the last measurable concentration.

[2] = GLP extended single-dose i.v. toxicity study in beagle dogs; assay type: in vivo, dog
Description: (§1) The following parameters and endpoints were evaluated: mortality, clinical observations, body weights, food consumption, body temperature, local reactions, ophthalmology, clinical pathology parameters (hematology, coagulation, clinical chemistry, and urinalysis), cardiovascular and respiratory safety pharmacology endpoints along with FOB evaluation, organ weights, and macroscopic and microscopic examinations, and TK parameters. The animals from subset A (3 males and 3 females per group) were sampled for toxicokinetics (TK) at: pre-dose, 5 min, 15 min, 30 min, 1 h, 2 h, 3 h and 6 h. Blood samples were collected in K2EDTA tubes. Plasma was prepared by centrifugation (2500 g for 10 minutes, +4° C.) within 1 hour after collection, and then frozen within 1 hour after centrifugation and stored at −80° C. […] Chromatographic separation was achieved using a Waters Acquity UPLC system with a Waters Acquity HSS T3 C18 2.1×50 mm, 1.8 μm column. Chromatography was conducted at 50° C. at a flow rate of 0.7 mL/min using a mobile phase consisting of A: 1% formic acid in acetonitrile, and B: 1% formic acid in water, according to the following linear gradient: 0 to 0.1 min: 90% B; 0.1 to 4.1 min: from 90% B to 74% B; 4.1 to 4.2 min: from 74% B to 5% B; 4.2 to 4.6 min: 5% B; 4.6 to 4.7 min: from 5% B to 90% B; 4.7-5.1 min; 90% B. Detection was performed using a Sciex AP16600 TOF mass spectrometer. Toxicokinetic parameters were estimated from concentration-time data using Phoenix pharmacokinetic software (version 6.4, Certara L.P.). A non-compartmental approach consistent with the bolus intravenous injection was used for parameter estimation.

[3] = Toxicokinetics in the extended single-dose toxicity study in dogs; assay type: in vivo, dog; conditions: for concentration at 5 min: plasma, iv, read-out: C5 min; for concentration at 5 min / AUClast / CL / Vss: mean n = 3; for t1/2: harmonic mean
Description: as §1

[4] = Biodistribution of In-111-labeled compounds by SPECT/CT in SK-RC-52 tumor-bearing mice, with or without gelofusine; assay type: in vivo, mouse; conditions: mouse, in vivo
Description: (§2) The effect on tumor uptake of prior injection of gelofusine for kidney protection was investigated in mice bearing the SK-RC-52 tumor. Biodistribution was evaluated using in vivo SPECT/CT imaging.
(§3) The study was performed in female NMRI nude mice (approximately 6 weeks of age) from Janvier Labs, France, housed up to 5 mice per cage.
(§4) The column was washed with 2 mL water, and then the final product was eluted from the column in EtOH solution (50%) • The sample was formulated in PBS to the final concentration of 150 MBq/mL and 5 nmol/mL.
(§5) HT-29 cells were cultured in McCoy's 5a Medium Modified (Sigma #M9309). For inoculation of HT-29 cells, cells were harvested, washed twice in PBS and resuspended at 5×10^7 cells/mL in PBS. Cells were kept on ice until inoculation.
(§6) Animals were anaesthetized (isoflurane, 2-4% in ambient air supplemented with 100% O2) prior to tumor inoculation. The tumor cells (100 μL suspension of either SK-RC-52 cells (2×10^6 cells/animal) or HT-29 cells (5×10^6 cells/animal)) were subcutaneously inoculated in the right flank using a 1-mL syringe equipped with a 27G needle. Tumor growth and animal weight were measured twice per week. Tumor size was measured by caliper and the volume was estimated using the following formula: 0.52×(length×width^2). When tumor sizes reached 150-250 mm^3, animals were randomized into groups (n=3) of similar average tumor volume and body weight.
(§7) CT was performed with helical scan, 300 ms exposure, reconstruction resolution of 250 μm. SPECT was performed with multi-pinhole scan and a 30 s frame time. For the quantification of the radioactivity uptake, regions of interests (ROIs) were drawn over the tumor, kidney, liver, and heart (estimate of blood) identified on the images. Uptake was expressed as percent of injected dose per gram tissue (% ID/g).

SK-RC-52 tumor = test: as above; assay type: in vivo, mouse
Description: as §2, §3, §4, §5, §6, §7

[5] = female beagle dogs, single i.v. bolus 16 μg/kg
[6] = female beagle dogs, single i.v. bolus 80 μg/kg
[7] = female beagle dogs, single i.v. bolus 400 μg/kg
[8] = male beagle dogs, single i.v. bolus 16 μg/kg
[9] = male beagle dogs, single i.v. bolus 80 μg/kg
[10] = male beagle dogs, single i.v. bolus 400 μg/kg

SMILES: CC(C)C[C@@H]1NC(=O)[C@H](Cc2cccc(NC(=O)CCCS(N)(=O)=O)c2)NC(=O)[C@H](CC(=O)O)NC(=O)[C@H]2CCCN2C(=O)[C@H](CCC(=O)O)NC(=O)[C@@H](NC(=O)[C@H](CCC(N)=O)NC(=O)CN2CCN(C(=O)CN3CCN(CC(=O)O)CCN(CC(=O)O)CCN(CC(=O)O)CC3)CC2)CSCc2cccc(c2)CSC[C@@H](C(N)=O)NC(=O)[C@H](CO)NC(=O)[C@H](Cc2c[nH]c3ccccc23)NC(=O)[C@H]([C@@H](C)O)NC1=O [DPI-4452, DOTA-PPAc-Gln-[Cys(3MeBn)-Glu-pro-Asp-Af3(Cpsu)-Leu-Thr-Trp-Ser-Cys]-NH2] ({DOTA}-[X1]QCE[dP]D[Phe(3-NHCO(CH2)3SO2NH2)]LTWSC-NH2; linker 3-12 via mXylylene)
- dose excreted at 8 h ([1]; i.v. 0.7 mg/kg): 3.57%
- dose excreted at 8 h ([1]; i.v. 5.5 mg/kg): 8.89%
- Human equivalent dose of the dog NOAEL ([2]; considering a 60 kg human): 13.3 mg
- Clinical signs or local reactions ([2]; dog, single i.v. 16, 80, 400 μg/kg): no DPI-4452 treatment-related clinical signs or local reactions were observed
- Tolerability ([2]; dog, single i.v. bolus up to 400 μg/kg): well tolerated
- Exposure difference between male and female dogs ([3]; all dose levels): No appreciable difference
- Mean AUCtlast at the NOAEL, females ([3]; dog, 400 μg/kg i.v.): 771 ng·h/mL
- Mean AUCtlast at the NOAEL, males ([3]; dog, 400 μg/kg i.v.): 854 ng·h/mL
- concentration at 5 min ([3]; dog, 0.08 mg/kg, female beagle dogs, single i.v. bolus 80 μg/kg): 346 ng/mL
- concentration at 5 min ([3]; dog, 0.08 mg/kg, male beagle dogs, single i.v. bolus 80 μg/kg): 332 ng/mL
- concentration at 5 min ([3]; dog, 0.4 mg/kg, female beagle dogs, single i.v. bolus 400 μg/kg): 1760 ng/mL
- concentration at 5 min ([3]; dog, 0.4 mg/kg, male beagle dogs, single i.v. bolus 400 μg/kg): 1840 ng/mL
- concentration at 5 min ([3]; dog, […], female beagle dogs, single i.v. bolus 16 μg/kg): 37.7 ng/mL
- concentration at 5 min ([3]; dog, […], male beagle dogs, single i.v. bolus 16 μg/kg): 43.5 ng/mL
- t1/2 [3, 5]: 14.3 min
- AUClast [3, 5]: 12.4 ng·h/mL
- CL [3, 5]: 21.2 mL/min/kg
- Vss [3, 5]: 0.30 L/kg
- t1/2 [3, 6]: 23.2 min
- AUClast [3, 6]: 144 ng·h/mL
- CL [3, 6]: 9.27 mL/min/kg
- Vss [3, 6]: 0.21 L/kg
- t1/2 [3, 7]: 21.8 min
- CL [3, 7]: 8.63 mL/min/kg
- Vss [3, 7]: 0.19 L/kg
- t1/2 [3, 8]: 15.5 min
- AUClast [3, 8]: 14.0 ng·h/mL
- CL [3, 8]: 18.3 mL/min/kg
- Vss [3, 8]: 0.26 L/kg
- t1/2 [3, 9]: 21.7 min
- AUClast [3, 9]: 132 ng·h/mL
- CL [3, 9]: 10.1 mL/min/kg
- Vss [3, 9]: 0.21 L/kg
- t1/2 [3, 10]: 23.7 min
- CL [3, 10]: 7.88 mL/min/kg
- Vss [3, 10]: 0.19 L/kg
- tissue uptake ([4]; SK-RC-52, Mean ± SEM, N=3, read-out: Peak Tumor Uptake): 9.42 ± 1.53 %ID/g
- tissue uptake ([4]; SK-RC-52 mice, read-out: Peak Kidney uptake): 3.43 ± 0.24 %ID/g
- Time to peak uptake in tumor (SK-RC-52 tumor; SK-RC-52): 1 h
- % remaining tumor uptake at 24 h p.i. (SK-RC-52 tumor; SK-RC-52, Mean ± SEM): 73.3 ± 0.8%
- Blood uptake at 4 h p.i. (SK-RC-52 tumor; SK-RC-52 mice): 0.05 ± 0.01 % ID/g
- Kidney uptake at 24 h p.i. (SK-RC-52 tumor; SK-RC-52 mice): 0.95 ± 0.05 % ID/g
- Liver uptake at 4 h p.i. (SK-RC-52 tumor; SK-RC-52 mice): 0.18 ± 0.04 % ID/g
